Source: US9938269B2, “Inhibitor compounds of phosphodiesterase type 10A” (ABBVIE INC., priority 2011, dated 2018)
Counter-ions that a name gives are not always drawn.

What was measured:
PDE10A (human) = target: T1, PDE10A (human) (Homo sapiens, UniProt Q9Y233); assay: Measurement of PDE activity (HTRF cAMP kit), human PDE10A; type: biochemical; settings: PDE enzymatic reaction, substrate 20 nM for PDE10, 60 minutes at 29 C
T1 construct: purchased BPS Bioscience
Outline: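 HTRF detection of cAMP left after hydrolysis, expressed as percent of uninhibited control to derive IC50. Reaction: serially diluted inhibitor mixed with recombinant enzyme, started with 20 nM cAMP, 60 min at 29 °C in Tris-HCl pH 7.5 buffer containing MgCl2 and BSA.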

[1] = Determination of the microsomal half-life, rat liver microsomes; settings: rat, liver microsomes, pH 7.4
[2] = Determination of the microsomal half-life, human liver microsomes; settings: for microsomal CLint at 0.5 μM: human, liver microsomes, pH 7.4; for Human mCl (mikrosomal clearance): human liver microsomes, 0.5 μM test substance, 0.25 mg microsomal protein, pH 7.4, 37° C., NADPH
Method: The test substances were incubated in a concentration of 0.5 μM as follows:
0.5 μM test substance are preincubated together with liver microsomes from different species (from rat, human or other species) (0.25 mg of microsomal protein/10 in 0.05 M potassium phosphate buffer of pH 7.4 in microtiter plates at 37° C. for 5 min. The reaction is started by adding NADPH (1 mg/mL). After 0, 5, 10, 15, 20 and 30 min., 50 μl aliquots are removed, and the reaction is immediately stopped and cooled with the same volume of acetonitrile. The samples are frozen until analyzed. The remaining concentration of undegraded test substance is determined by MSMS. The half-life (T½) is determined from the gradient of the signal of test substance/unit time plot, it being possible to calculate the half-life of the test substance, assuming first order kinetics, from the decrease in the concentration of the compound with time. The microsomal clearance (mCl) is calculated from mCl=ln 2/T½/(content of microsomal protein in mg/ml)×1000 [ml/min/mg]

T1 sequence (Q9Y233 whole entry): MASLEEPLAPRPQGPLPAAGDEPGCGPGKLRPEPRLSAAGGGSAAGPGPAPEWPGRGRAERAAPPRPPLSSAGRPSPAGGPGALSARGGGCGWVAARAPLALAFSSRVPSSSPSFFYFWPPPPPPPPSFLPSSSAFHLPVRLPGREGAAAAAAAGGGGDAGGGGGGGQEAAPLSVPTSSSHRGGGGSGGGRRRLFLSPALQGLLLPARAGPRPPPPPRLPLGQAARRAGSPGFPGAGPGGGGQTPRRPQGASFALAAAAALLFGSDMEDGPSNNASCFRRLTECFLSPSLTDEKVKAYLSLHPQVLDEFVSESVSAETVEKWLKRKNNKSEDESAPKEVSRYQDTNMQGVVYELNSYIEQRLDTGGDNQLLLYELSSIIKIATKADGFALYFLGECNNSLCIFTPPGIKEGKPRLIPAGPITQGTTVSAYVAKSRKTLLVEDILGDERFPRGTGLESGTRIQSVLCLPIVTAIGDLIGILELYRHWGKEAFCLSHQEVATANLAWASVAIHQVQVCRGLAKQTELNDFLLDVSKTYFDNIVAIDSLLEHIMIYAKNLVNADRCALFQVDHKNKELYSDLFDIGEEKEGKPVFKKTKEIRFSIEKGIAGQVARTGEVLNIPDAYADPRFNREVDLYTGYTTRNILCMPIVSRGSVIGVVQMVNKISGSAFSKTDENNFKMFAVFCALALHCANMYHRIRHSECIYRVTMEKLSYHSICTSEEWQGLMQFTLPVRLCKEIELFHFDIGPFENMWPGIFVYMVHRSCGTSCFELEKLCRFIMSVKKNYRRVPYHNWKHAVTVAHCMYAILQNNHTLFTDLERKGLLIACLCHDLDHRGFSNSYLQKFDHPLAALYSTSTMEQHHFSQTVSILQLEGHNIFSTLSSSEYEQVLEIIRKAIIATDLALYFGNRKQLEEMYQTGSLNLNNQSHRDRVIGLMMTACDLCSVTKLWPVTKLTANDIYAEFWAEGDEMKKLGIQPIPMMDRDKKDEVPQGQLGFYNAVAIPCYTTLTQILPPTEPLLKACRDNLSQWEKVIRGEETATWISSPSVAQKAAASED

SMILES	IC50 (PDE10A (human)) [nM]	microsomal CLint at 0.5 μM [1] [µL/min/mg]	microsomal CLint at 0.5 μM [2] [µL/min/mg]	Human mCl (mikrosomal clearance) [2]
O=C1c2c(-c3ccoc3)ccnc2CN1CCc1cn2ccccc2n1 [compound 414, 4-Furan-3-yl-6-(2-imidazo[1,2-a]pyridin-2-yl-ethyl)-6,7-dihydro-pyrrolo[3,4-b]pyridin-5-one]	< 100	< 100	< 100	–
Cc1ccc2c(c1)nc(CCN1Cc3nccc(N4CCOCC4)c3C1=O)n2C [compound 415, 6-[2-(1,5-Dimethyl-1H-benzoimidazol-2-yl)-ethyl]-4-morpholin-4-yl-6,7-dihydro-pyrrolo[3,4-b]pyridin-5-one]	< 100	< 100	< 100	–
Cc1ccc2c(c1)nc(CCN1Cc3nccc(NC4COC4)c3C1=O)n2C [compound 416, 6-[2-(1,5-Dimethyl-1H-benzoimidazol-2-yl)-ethyl]-4-(oxetan-3-ylamino)-6,7-dihydro-pyrrolo[3,4-b]pyridin-5-one]	< 100	< 100	< 100	–
O=C1c2c(N3CCOCC3)ccnc2CN1CCc1nc2ccccc2o1 [compound 417, 6-[2-(1,3-Benzoxazol-2-yl)ethyl]-4-morpholino-7H-pyrrolo[3,4-b]pyridin-5-one]	100 to 200	< 100	< 100	–
O=C1c2c(-c3ccncc3)ccnc2CN1CCc1nc2ccccc2o1 [compound 418, 6-[2-(1,3-Benzoxazol-2-yl)ethyl]-4-(4-pyridyl)-7H-pyrrolo[3,4-b]pyridin-5-one]	200 to 500	< 100	< 100	–
O=C(O)C(F)(F)F.O=C1c2c(-c3ccnc(F)c3)ccnc2CN1CCc1nc2ccccc2s1 [compound 421, 6-[2-(1,3-Benzothiazol-2-yl)ethyl]-4-(2-fluoro-4-pyridyl)-7H-pyrrolo[3,4-b]pyridin-5-one trifluoroacetate]	< 100	< 100	–	◯
O=C1c2c(-c3ccoc3)ccnc2CN1CCc1nc2ccccc2s1 [compound 422, 6-[2-(1,3-Benzothiazol-2-yl)ethyl]-4-(3-furyl)-7H-pyrrolo[3,4-b]pyridin-5-one trifluoroacetate]	< 100	100 to 220	< 100	–
O=C1c2c(N3CCC4(COC4)C3)ccnc2CN1CCc1nc2ccccc2s1 [compound 424, 6-[2-(1,3-Benzothiazol-2-yl)ethyl]-4-(2-oxa-7-azaspiro[3.4]octan-7-yl)-7H-pyrrolo[3,4-b]pyridin-5-one]	< 100	< 100	< 100	–
O=C1c2c(N3CCOCC3)ccnc2CN1CCc1cn2ccsc2n1 [compound 425, 6-(2-Imidazo[2,1-b]thiazol-6-ylethyl)-4-morpholino-7H-pyrrolo[3,4-b]pyridin-5-one]	< 100	< 100	–	◯
O=C1c2c(N3CC4COCC4C3)ccnc2CN1CCc1nc2ccccc2s1 (stereo not drawn) [compound 426, 4-(1,3,3a,4,6,6a-Hexahydrofuro[3,4-c]pyrrol-5-yl)-6-[2-(1,3-benzothiazol-2-yl)ethyl]-7H-pyrrolo[3,4-b]pyridin-5-one]	< 100	< 100	100 to 220	–
O=C1c2cccc(-c3cc[nH]n3)c2CN1CCc1nc2ccccc2s1 [compound 428, 2-[2-(1,3-Benzothiazol-2-yl)ethyl]-4-(1H-pyrazol-3-yl)isoindolin-1-one]	< 100	> 220	100 to 220	–
O=C1c2c(-c3cc[nH]n3)ccnc2CN1CCc1nc2ccccc2s1 [compound 429, 6-[2-(1,3-Benzothiazol-2-yl)ethyl]-4-(1H-pyrazol-3-yl)-7H-pyrrolo[3,4-b]pyridin-5-one]	< 100	< 100	< 100	–
O=C1c2c(-c3cccnc3)ccnc2CN1CCc1nc2ccccc2s1 [compound 430, 6-[2-(1,3-Benzothiazol-2-yl)ethyl]-4-(3-pyridyl)-7H-pyrrolo[3,4-b]pyridin-5-one trifluoroacetate]	< 100	< 100	< 100	–
O=C1c2cccc(-c3ccncc3)c2CN1CCc1nc2ccccc2s1 [compound 431, 2-[2-(1,3-Benzothiazol-2-yl)ethyl]-4-(4-pyridyl)isoindolin-1-one]	100 to 200	> 220	< 100	–
Cn1nccc1-c1ccnc2c1C(=O)N(CCc1nc3ccccc3s1)C2 [compound 432, 6-[2-(1,3-Benzothiazol-2-yl)ethyl]-4-(2-methylpyrazol-3-yl)-7H-pyrrolo[3,4-b]pyridin-5-one trifluoroacetate]	100 to 200	< 100	< 100	–
O=C1c2c(-c3cscn3)ccnc2CN1CCc1nc2ccccc2s1 [compound 436, 6-[2-(1,3-Benzothiazol-2-yl)ethyl]-4-thiazol-4-yl-7H-pyrrolo[3,4-b]pyridin-5-one]	200 to 500	< 100	< 100	–
Cc1ncc(-c2ccnc3c2C(=O)N(CCc2nc4ccccc4s2)C3)cn1 [compound 445, 6-[2-(1,3-Benzothiazol-2-yl)ethyl]-4-(2-methylpyrimidin-5-yl)-7H-pyrrolo[3,4-b]pyridin-5-one]	100 to 200	< 100	< 100	–
O=C(O)C1CN(c2ccnc3c2C(=O)N(CCc2ccc4ccccc4n2)C3)C1 [compound 446, 1-[5-oxo-6-[2-(2-quinolyl)ethyl]-7H-pyrrolo[3,4-b]pyridin-4-yl]azetidine-3-carboxylic acid]	100 to 200	< 100	< 100	–
O=C1c2c(OC3COC3)ccnc2CN1CCc1ccc2ccccc2n1 [compound 447, 4-(oxetan-3-yloxy)-6-[2-(2-quinolyl)ethyl]-7H-pyrrolo[3,4-b]pyridin-5-one]	< 100	100 to 220	100 to 220	–
COc1ccc(-c2ccncc2)c2c1C(=O)N(CCc1cn3ccccc3n1)C2 [compound 448, 2-(2-Imidazo[1,2-a]pyridin-2-yl-ethyl)-7-methoxy-4-pyridin-4-yl-2,3-dihydro-isoindol-1-one trifluoroacetate]	< 100	< 100	< 100	–
O=C1c2c(cccc2N2CCOCC2)CN1CCc1nc2ccccc2n1C(F)F [compound 449, 2-[2-(1-Difluoromethyl-1H-benzoimidazol-2-yl)-ethyl]-7-morpholin-4-yl-2,3-dihydro-isoindol-1-one trifluoroacetate]	200 to 500	100 to 220	100 to 220	–
O=C1c2c(cccc2-c2ccncc2)CN1CCc1nc2ccccc2n1C(F)F [compound 450, 2-[2-(1-Difluoromethyl-1H-benzoimidazol-2-yl)-ethyl]-7-pyridin-4-yl-2,3-dihydro-isoindol-1-one trifluoroacetate]	200 to 500	100 to 220	> 220	–
O=C1c2nccc(-c3ccncc3)c2CN1CCc1ccc2ccccc2n1 [compound 451, 4-Pyridin-4-yl-6-(2-quinolin-2-yl-ethyl)-5,6-dihydro-pyrrolo[3,4-b]pyridin-7-one]	< 100	100 to 220	< 100	–
O=C1c2nccc(-c3ccncc3)c2CN1CCc1cn2ccccc2n1 [compound 452, 6-(2-Imidazo[1,2-a]pyridin-2-yl-ethyl)-4-pyridin-4-yl-5,6-dihydro-pyrrolo[3,4-b]pyridin-7-one]	200 to 500	< 100	< 100	–
COc1ccc(-c2cc[nH]n2)c2c1C(=O)N(CCc1cn3ccccc3n1)C2 [compound 454, 2-(2-Imidazo[1,2-a]pyridin-2-yl-ethyl)-7-methoxy-4-(1H-pyrazol-3-yl)-2,3-dihydro-isoindol-1-one]	100 to 200	< 100	< 100	–
COc1ccc(-c2cccnc2)c2c1C(=O)N(CCc1cn3ccccc3n1)C2 [compound 456, 2-(2-Imidazo[1,2-a]pyridin-2-yl-ethyl)-7-methoxy-4-pyridin-3-yl-2,3-dihydro-isoindol-1-one trifluoroacetate]	< 100	100 to 220	< 100	–
COc1ccc(-c2ccc(OC)c3c2CN(CCc2cn4ccccc4n2)C3=O)cc1 [compound 457, 2-(2-Imidazo[1,2-a]pyridin-2-yl-ethyl)-7-methoxy-4-(4-methoxy-phenyl)-2,3-dihydro-isoindol-1-one trifluoroacetate]	< 100	100 to 220	100 to 220	–
Cn1nccc1-c1ccnc2c1CN(CCc1ccc3ccccc3n1)C2=O [compound 459, 4-(2-Methyl-2H-pyrazol-3-yl)-6-(2-quinolin-2-yl-ethyl)-5,6-dihydro-pyrrolo[3,4-b]pyridin-7-one trifluoroacetate]	200 to 500	< 100	< 100	–
COc1ccc(-c2ccnc3c2CN(CCc2cn4ccccc4n2)C3=O)cc1 [compound 461, 6-(2-Imidazo[1,2-a]pyridin-2-yl-ethyl)-4-(4-methoxy-phenyl)-5,6-dihydro-pyrrolo[3,4-b]pyridin-7-one trifluoroacetate]	100 to 200	> 220	< 100	–
